One assay addresses FXa (Homo sapiens, UniProt P00742). Nature of the assay: In vitro chromogenic factor Xa inhibitory assay. In kind it is biochemical.
For the next assay, the system named is thrombin. To be noted: cited from earlier work; for IC50: thrombin inhibitors.

Usually IC50 stands for the point on the concentration scale where inhibition reaches its midpoint.

Sequence of FXa (P00742 235-488 limits assumed): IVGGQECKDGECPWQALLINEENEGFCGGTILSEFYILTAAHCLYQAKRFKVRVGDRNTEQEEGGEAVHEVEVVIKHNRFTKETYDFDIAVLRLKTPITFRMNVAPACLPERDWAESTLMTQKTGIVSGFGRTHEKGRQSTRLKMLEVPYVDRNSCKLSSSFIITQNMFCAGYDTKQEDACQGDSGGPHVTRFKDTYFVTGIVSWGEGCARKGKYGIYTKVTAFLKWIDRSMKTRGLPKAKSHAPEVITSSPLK
Sequence of FXa (P00742 41-179 partner limits assumed): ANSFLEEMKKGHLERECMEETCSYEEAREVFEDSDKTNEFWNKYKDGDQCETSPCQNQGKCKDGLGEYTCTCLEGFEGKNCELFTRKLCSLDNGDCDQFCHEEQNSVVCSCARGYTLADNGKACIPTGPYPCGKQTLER

With `O=c1cc(-c2ccc(O)cc2)oc2cc(O)ccc12` [Compound 1, 7,4′-dihydroxyflavone], on FXa, the “FXa inhibitory activity (in words)” value is recorded as “Moderate activity” and the IC50 turned out to be 67.1 ± 1.75 µM.
On FXa, `COc1ccc(-c2coc3cc(O)ccc3c2=O)cc1` [Compound 2, 7-hydroxy-4′-methoxyisoflavone] came in with a half-maximal inhibitory concentration (IC50) of 17.7 ± 0.28 µM.
Regarding `CC1(C)C=Cc2c(ccc3c2OC[C@@H](c2ccc(O)cc2O)C3)O1` [Compound 3, 3-R-glabridin], on FXa, the “FXa inhibitory activity (in words)” value is “Moderate activity” and it took 35.3 ± 1.03 µM to reach half-maximal inhibition (IC50).
In the case of `O=C(/C=C/c1ccc(O)cc1)c1ccc(O)cc1O` [Compound 4, isoliquiritigenin], at FXa, the “FXa inhibitory activity (in words)” value is on record as “Moderate activity” and the half-inhibitory concentration (IC50) came to 74.4 ± 1.29 µM. In the assay on thrombin, the concentration for half-maximal inhibition (IC50) was 17.9 µM.
Regarding `O=C1C[C@@H](c2ccc(O[C@@H]3O[C@H](CO)[C@@H](O)[C@H](O)[C@H]3O)cc2)Oc2cc(O)ccc21` [Compound 5, liquiritin], the IC50 against FXa was 5.15 ± 0.09 µM. Moreover, in the assay with thrombin, the “thrombin inhibitory effects (in words)” value is recorded as “negligible”.
`COc1c(/C=C/C(=O)c2ccc(O)c(O)c2)ccc(O)c1O` [Compound 7, 3,3′,4,4′-tetrahydroxy-2-methoxychalcone] yielded an IC50 at FXa of 10.4 ± 0.52 µM.
On to “isoliquiritigenin-4-O-β-D-apiosylglucoside [Compound 10]”, for which the “FXa inhibitory activity (in words)” value at FXa is “very weak effects”. For the same molecule, the IC50 with thrombin was 37.9 µM.
For “liquiritigenin-4′-O-β-D-apiosyl(1-2)-β-D-glucoside [Compound 8]”, the “FXa inhibitory activity (in words)” value at FXa was “very weak effects”.

Source of the values: publication PMC8695410 (RSC Advances, 2021).
